Results as given in ChEMBL document CHEMBL3431459, “Roche carnitine palmitoyltransferase modulator screening data (supplementary data associated with the publication CHEMBL2216752)”.
Converted amounts (≈) assume the structure as drawn.

What was measured:
[1] = SUPPLEMENTARY: Lyophilisation Solubility Assay (LYSA); type: physicochemical; settings: read-out: Kinetic_solubility
[2] = biological target: T1, Carnitine O-palmitoyltransferase 1, muscle isoform (Homo sapiens, UniProt Q92523); experiment: SUPPLEMENTARY: Inhibition of Carnitine palmitoyltransferase 1, muscle isoform; design: species or system Muscle tissue
T1 sequence (Q92523 whole entry): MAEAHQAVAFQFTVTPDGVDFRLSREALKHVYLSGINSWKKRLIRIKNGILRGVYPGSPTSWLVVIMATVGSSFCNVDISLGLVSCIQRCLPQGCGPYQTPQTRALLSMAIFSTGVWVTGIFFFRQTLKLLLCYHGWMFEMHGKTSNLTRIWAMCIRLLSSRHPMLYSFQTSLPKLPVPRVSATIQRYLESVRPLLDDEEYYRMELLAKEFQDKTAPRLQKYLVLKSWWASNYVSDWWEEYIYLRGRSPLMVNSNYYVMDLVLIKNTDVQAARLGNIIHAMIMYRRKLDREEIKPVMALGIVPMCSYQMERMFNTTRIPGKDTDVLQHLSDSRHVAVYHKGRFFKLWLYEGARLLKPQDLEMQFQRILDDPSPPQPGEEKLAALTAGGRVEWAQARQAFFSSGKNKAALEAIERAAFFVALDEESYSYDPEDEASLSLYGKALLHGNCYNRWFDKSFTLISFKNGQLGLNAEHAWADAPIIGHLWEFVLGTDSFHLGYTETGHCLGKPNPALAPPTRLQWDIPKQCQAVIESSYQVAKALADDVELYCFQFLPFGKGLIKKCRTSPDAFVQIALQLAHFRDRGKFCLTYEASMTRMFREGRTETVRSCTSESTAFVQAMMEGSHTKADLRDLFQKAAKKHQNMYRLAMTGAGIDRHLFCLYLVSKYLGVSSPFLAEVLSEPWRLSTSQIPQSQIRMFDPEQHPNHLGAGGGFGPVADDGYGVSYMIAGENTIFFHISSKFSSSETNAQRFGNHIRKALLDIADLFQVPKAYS

[3] = SUPPLEMENTARY: PAMPA permeability assay; type: physicochemical; settings: read-out: Permeability
[4] = biological target: T2, Carnitine O-palmitoyltransferase 2, mitochondrial (Rattus norvegicus, UniProt P18886); experiment: (§1) SUPPLEMENTARY: Inhibition of Carnitine palmitoyltransferase 2
T2 sequence (P18886 whole entry): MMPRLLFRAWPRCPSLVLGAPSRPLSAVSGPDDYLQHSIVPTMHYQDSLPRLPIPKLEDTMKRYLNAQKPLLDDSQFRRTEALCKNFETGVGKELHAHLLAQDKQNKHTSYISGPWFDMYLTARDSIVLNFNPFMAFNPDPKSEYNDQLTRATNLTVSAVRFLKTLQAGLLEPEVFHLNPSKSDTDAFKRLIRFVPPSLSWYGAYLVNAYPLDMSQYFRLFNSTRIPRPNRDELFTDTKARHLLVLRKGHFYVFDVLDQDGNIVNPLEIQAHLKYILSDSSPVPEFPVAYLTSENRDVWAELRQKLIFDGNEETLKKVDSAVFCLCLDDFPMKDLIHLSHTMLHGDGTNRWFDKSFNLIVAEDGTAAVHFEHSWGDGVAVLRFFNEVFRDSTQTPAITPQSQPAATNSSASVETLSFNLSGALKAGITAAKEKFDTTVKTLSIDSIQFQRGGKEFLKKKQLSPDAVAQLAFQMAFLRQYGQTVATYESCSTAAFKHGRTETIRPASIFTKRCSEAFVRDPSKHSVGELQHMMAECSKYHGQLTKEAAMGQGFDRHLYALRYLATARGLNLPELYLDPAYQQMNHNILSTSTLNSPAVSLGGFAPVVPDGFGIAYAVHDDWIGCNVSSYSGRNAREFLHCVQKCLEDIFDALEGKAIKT

[5] = biological target: T3, Carnitine O-palmitoyltransferase 2, mitochondrial (Homo sapiens, UniProt P23786); experiment: as §1
T3 sequence (P23786 whole entry): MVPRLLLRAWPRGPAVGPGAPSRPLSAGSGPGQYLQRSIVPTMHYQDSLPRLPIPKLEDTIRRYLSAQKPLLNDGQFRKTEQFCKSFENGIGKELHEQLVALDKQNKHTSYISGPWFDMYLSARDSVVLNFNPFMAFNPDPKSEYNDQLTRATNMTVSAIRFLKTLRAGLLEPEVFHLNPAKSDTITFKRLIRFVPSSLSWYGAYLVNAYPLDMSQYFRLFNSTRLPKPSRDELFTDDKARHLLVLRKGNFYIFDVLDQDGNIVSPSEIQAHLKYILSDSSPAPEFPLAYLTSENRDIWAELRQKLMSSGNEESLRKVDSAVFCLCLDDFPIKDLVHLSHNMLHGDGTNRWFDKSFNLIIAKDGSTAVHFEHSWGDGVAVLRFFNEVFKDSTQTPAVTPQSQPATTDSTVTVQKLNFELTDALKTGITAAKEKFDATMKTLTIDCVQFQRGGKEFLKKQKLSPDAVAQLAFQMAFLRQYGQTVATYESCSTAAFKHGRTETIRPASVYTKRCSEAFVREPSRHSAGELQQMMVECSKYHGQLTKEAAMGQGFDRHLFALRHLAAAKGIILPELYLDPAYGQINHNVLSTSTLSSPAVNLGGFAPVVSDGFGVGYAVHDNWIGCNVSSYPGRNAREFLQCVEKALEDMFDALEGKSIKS

[6] = biological target: T4, Carnitine O-palmitoyltransferase 1, liver isoform (Homo sapiens, UniProt P50416); experiment: (§2) SUPPLEMENTARY: Inhibition of Carnitine palmitoyltransferase 1, liver isoform
T4 sequence (P50416 whole entry): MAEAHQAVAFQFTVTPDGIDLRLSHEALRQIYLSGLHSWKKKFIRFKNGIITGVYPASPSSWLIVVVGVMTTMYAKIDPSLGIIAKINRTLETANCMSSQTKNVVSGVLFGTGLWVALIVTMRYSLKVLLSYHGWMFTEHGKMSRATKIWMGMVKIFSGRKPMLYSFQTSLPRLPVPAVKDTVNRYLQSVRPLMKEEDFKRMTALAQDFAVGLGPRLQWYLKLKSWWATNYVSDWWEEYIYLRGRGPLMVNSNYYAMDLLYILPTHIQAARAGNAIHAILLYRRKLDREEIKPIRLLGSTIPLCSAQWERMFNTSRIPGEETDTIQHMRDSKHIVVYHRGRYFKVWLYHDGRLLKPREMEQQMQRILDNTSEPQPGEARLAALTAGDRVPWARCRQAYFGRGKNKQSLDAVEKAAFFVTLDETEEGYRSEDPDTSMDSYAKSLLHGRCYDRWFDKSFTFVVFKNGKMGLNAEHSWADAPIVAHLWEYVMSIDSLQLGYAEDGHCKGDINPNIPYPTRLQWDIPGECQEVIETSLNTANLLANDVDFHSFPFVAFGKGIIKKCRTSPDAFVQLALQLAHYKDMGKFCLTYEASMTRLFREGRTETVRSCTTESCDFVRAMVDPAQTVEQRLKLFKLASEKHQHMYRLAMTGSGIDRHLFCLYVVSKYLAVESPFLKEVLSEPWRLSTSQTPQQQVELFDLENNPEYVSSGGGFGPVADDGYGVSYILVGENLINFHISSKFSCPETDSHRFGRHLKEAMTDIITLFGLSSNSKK

[7] = biological target: T5, Carnitine O-palmitoyltransferase 1, liver isoform (Rattus norvegicus, UniProt P32198); experiment: as §2
T5 sequence (P32198 whole entry): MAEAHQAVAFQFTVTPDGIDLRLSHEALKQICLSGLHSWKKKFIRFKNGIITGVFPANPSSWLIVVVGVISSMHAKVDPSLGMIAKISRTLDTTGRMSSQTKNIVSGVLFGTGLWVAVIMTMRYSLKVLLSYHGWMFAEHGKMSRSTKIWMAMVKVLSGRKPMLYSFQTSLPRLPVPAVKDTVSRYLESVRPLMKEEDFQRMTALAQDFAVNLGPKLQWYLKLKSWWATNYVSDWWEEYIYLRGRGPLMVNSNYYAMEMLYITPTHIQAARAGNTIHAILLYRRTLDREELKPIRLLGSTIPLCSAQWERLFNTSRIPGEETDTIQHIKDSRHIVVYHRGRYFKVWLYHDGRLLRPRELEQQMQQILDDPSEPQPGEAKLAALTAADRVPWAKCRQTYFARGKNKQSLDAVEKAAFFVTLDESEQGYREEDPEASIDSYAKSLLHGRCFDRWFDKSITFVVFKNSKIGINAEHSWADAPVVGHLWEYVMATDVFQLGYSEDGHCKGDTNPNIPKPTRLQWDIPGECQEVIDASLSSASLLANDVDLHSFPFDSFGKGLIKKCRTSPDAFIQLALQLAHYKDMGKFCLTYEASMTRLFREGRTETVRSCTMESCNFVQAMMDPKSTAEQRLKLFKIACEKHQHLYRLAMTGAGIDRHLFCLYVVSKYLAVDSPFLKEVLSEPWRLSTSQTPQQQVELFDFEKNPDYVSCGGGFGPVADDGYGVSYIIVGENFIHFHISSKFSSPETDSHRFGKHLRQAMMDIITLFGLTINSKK

## COc1ccc(Cl)cc1Cc1cn(C)c2ccc(C(=O)Nc3ccc(C(=O)O)cc3)cc12
[1]
  solubility kinetic: 23 µg/mL (≈ 51.2 µM)
[2]
  IC50: 2.33 µM
[3]
  Papp: 0.47 ×10⁻⁶ cm/s
[4]
  IC50: 9.31 µM
[5]
  IC50: 1.35 µM
[6]
  IC50: 0.0399 µM
[7]
  IC50: 0.102 µM

## O=C(Nc1ccc(C(=O)O)c(F)c1)c1ccc2c(c1)N(S(=O)(=O)c1cccc(C(F)(F)F)c1)CCC2
[1]
  solubility kinetic: 10 µg/mL (≈ 19.1 µM)
[2]
  IC50: 9 µM
[3]
  Papp: 2.13 ×10⁻⁶ cm/s
[4]
  IC50: 6.45 µM
[5]
  IC50: 2.23 µM
[6]
  IC50: 0.126 µM
[7]
  IC50: 0.0748 µM

## COc1ccc(Cl)cc1CN1C(=O)COc2ccc(C(=O)Nc3nc(CC(=O)O)cs3)cc21
[1]
  solubility kinetic: 34 µg/mL (≈ 69.7 µM)
[2]
  IC50: 32.4 µM
[3]
  Papp: 1.13 ×10⁻⁶ cm/s
[4]
  IC50: > 100 µM
[5]
  IC50: > 100 µM
[6]
  IC50: 0.142 µM
[7]
  IC50: 0.0859 µM

## COc1ccc(Cl)cc1S(=O)(=O)N1CCOc2c(C)cc(C(=O)Nc3ccc(C(=O)O)cc3)cc21
[1]
  solubility kinetic: 2 µg/mL (≈ 3.87 µM)
[2]
  IC50: 21.1 µM
[3]
  Papp: 1.68 ×10⁻⁶ cm/s
[4]
  IC50: 4.33 µM
[5]
  IC50: 0.554 µM
[6]
  IC50: 0.0463 µM
[7]
  IC50: 0.0413 µM

## COc1ccc(Cl)cc1S(=O)(=O)N1CCCc2ccc(C(=O)Nc3ccc(C(=O)O)cc3)cc21
[1]
  solubility kinetic: 8 µg/mL (≈ 16 µM)
[2]
  IC50: 5.93 µM
[3]
  Papp: 3.2 ×10⁻⁶ cm/s
[4]
  IC50: 2.85 µM
[5]
  IC50: 2.13 µM
[6]
  IC50: 0.0267 µM
[7]
  IC50: 0.0323 µM

## COc1ccc(Cl)cc1CN1C(=O)OC(C)(C)c2ccc(C(=O)Nc3ccc(C(=O)O)c(Cl)c3)cc21
[1]
  solubility kinetic: 30 µg/mL (≈ 56.7 µM)
[2]
  IC50: 1.22 µM
[3]
  Papp: 1.1 ×10⁻⁶ cm/s
[4]
  IC50: 23.9 µM
[5]
  IC50: 4.06 µM
[6]
  IC50: 0.245 µM
[7]
  IC50: 0.0508 µM

## COc1ccc(Cl)cc1S(=O)(=O)c1nn(C)c2ccc(C(=O)Nc3ccc(C(=O)O)cc3)cc12
[1]
  solubility kinetic: 8 µg/mL (≈ 16 µM)
[2]
  IC50: > 100 µM
[3]
  Papp: 1.89 ×10⁻⁶ cm/s
[4]
  IC50: > 100 µM
[5]
  IC50: > 100 µM
[6]
  IC50: 0.05 µM
[7]
  IC50: 0.0648 µM

## COc1ccc(Cl)cc1S(=O)(=O)N1COc2c(F)cc(C(=O)Nc3ccc(C(=O)O)c(Cl)c3)cc21
[1]
  solubility kinetic: 73 µg/mL (≈ 135 µM)
[2]
  IC50: 2.73 µM
[3]
  Papp: 1.79 ×10⁻⁶ cm/s
[4]
  IC50: 9.57 µM
[5]
  IC50: 2.78 µM
[6]
  IC50: 0.13 µM
[7]
  IC50: 0.123 µM

## COc1ccc(Cl)cc1S(=O)(=O)N1CCNc2ccc(C(=O)Nc3ccc(C(=O)O)cc3)cc21
[1]
  solubility kinetic: 1 µg/mL (≈ 1.99 µM)
[2]
  IC50: 11.8 µM
[3]
  Papp: 0.81 ×10⁻⁶ cm/s
[4]
  IC50: > 100 µM
[5]
  IC50: > 100 µM
[6]
  IC50: 0.0713 µM
[7]
  IC50: 0.189 µM

## COc1ccc(Cl)cc1S(=O)(=O)N1CCOc2ccc(C(=O)Nc3ccc(C(=O)O)cc3)cc21
[1]
  solubility kinetic: 8 µg/mL (≈ 15.9 µM)
[2]
  IC50: 14.8 µM
[3]
  Papp: 2.7 ×10⁻⁶ cm/s
[4]
  IC50: 36.6 µM
[5]
  IC50: 26.7 µM
[6]
  IC50: 0.0401 µM
[7]
  IC50: 0.0354 µM

## Nc1cccc(-c2nc([C@H]3CCCCN3C(=O)COc3ccccc3)no2)n1
[1]
  solubility kinetic: 25 µg/mL (≈ 65.9 µM)
[2]
  IC50: > 100 µM
[3]
  Papp: 5.45 ×10⁻⁶ cm/s
[4]
  IC50: > 100 µM
[5]
  IC50: 32 µM
[6]
  IC50: 0.111 µM
[7]
  IC50: 0.255 µM

## COc1ccc(Cl)cc1S(=O)(=O)N1CCCCc2ccc(C(=O)Nc3ccc(C(=O)O)c(F)c3)cc21
[1]
  solubility kinetic: 345 µg/mL (≈ 647 µM)
[2]
  IC50: 9.1 µM
[3]
  Papp: 2.15 ×10⁻⁶ cm/s
[4]
  IC50: 46.5 µM
[5]
  IC50: 28.1 µM
[6]
  IC50: 0.131 µM
[7]
  IC50: 0.134 µM
